Measured values from US8183379B2, “Antitumor agents” (Wayne State University, priority 2005, dated 2012).
Read-outs that look alike come from different tables or passages of the source.

Assays:
[1] = test system: Mammary Adenocarcinoma 16/C; assay: Exp 2877A: evaluation against early stage Mammary Adenocarcinoma 16/C implanted SC in C3H female mice; type: in vivo
Method: In Experiment #2877A the following general methodologies were employed:
Tumor and Animal Maintenance
Mammary adenocarcinoma-16/C were used in the studies. […] The mice were supplied food and water ad libitum.
Chemotherapy of Solid Tumors
Animals were pooled, implanted subcutaneously with 30 to 60 mg tumor fragments by a 12 gauge trocar on day 0, and again pooled before unselective distribution to the various treatment and control groups. For early stage treatment, chemotherapy was started within 1 to 3 days after tumor implantation while the number of cells was relatively small (10^7 to 10^8 cells). Tumors were measured with a caliper twice weekly. Mice were sacrificed when their tumors reached 1500 mg. Tumor weights are estimated from two-dimensional measurements:
Tumor weight (in mg)=(a×b^2)/2, where a and b are the tumor length and width in (mm), respectively.
End Points for Assessing Antitumor Activity for Solid Tumors
The following quantitative endpoints were used to assess antitumor activity: • a) Tumor growth delay (T−C value), where T is the median time (in days) required for the treatment group tumors to reach a predetermined size (e.g., 1000 mg), and C is the median time (in days) for the control group tumors to reach the same size. Tumor-free survivors are excluded from these calculations (cures are tabulated separately). This value is an important criterion of antitumor effectiveness because it allows the quantification of tumor cell kill. • b) Calculation of tumor cell kill For subcutaneously (SC) growing tumors, the log10 cell kill was calculated from the following formula:
[formula] where T−C is the tumor growth delay as described above and Td is the tumor volume doubling time (in days), estimated from the best fit straight line from a log-linear growth plot of the control group tumors in exponential growth (100 to 800 mg range). The conversion of the T−C values to log10 cell kill is possible because the Td of tumors regrowing post treatment (Rx) approximates the Td values of the tumors in untreated control mice.
The issue of conversion of tumor growth delay (T−C value) to log tumor cell kill is justified in this series because of the large number of cures obtained with 5 of the agents in this XK469 series that have been previously studied and patented. Cures are a clear indication of tumor cell kill (rather than stasis of tumor cell replication).
In selected cases, both for historic in vivo evaluation data as well as data presented here, it is of value to compare log kill numbers from trials of markedly different testing schedules. For this purpose, an activity table was created, and is presented below. It should be noted that an activity rating of +++ to ++++ is needed to effect partial regression (PR) or complete regression (CR) of 100 to 300 mg size masses of most transplanted solid tumors of mice. Thus, an activity rating of + or ++ would not be scored as active by usual clinical criteria. A PR is a reduction in tumor mass to less than 50% of pretreatment size. A CR is a reduction in tumor mass to below palpable size (i.e., reduction to zero detectable mass).

[2] = Method: Mammary adenocarcinoma-16/C were used in the studies. Tumors were maintained in the mouse strain of origin C3H (for the mammary tumors). Individual mouse body weights for each experiment were within 5 grams, and all mice were over 17 grams at the start of therapy. The mice were supplied food and water ad libitum.
The treatment and control groups were measured when the control group tumors reach approximately 700 to 1200 mg in size (median of group). The T/C value in percent is an indication of antitumor effectiveness: A T/C=0% means no tumor growth. […] A T/C equal to or less than 42% is considered significant antitumor activity by the Drug Evaluation Branch of the Division of Cancer Treatment (NCI). A T/C value <10% is considered to indicate highly significant antitumor activity, and is the level used by NCI to justify a clinical trial if toxicity, formulation, and certain other requirements are met (termed DN-2 level activity).

[3] = test system: transplantable mouse tumors; details: cited from earlier work
[4] = Cg 4, IV Q2dx7, 54 mg/kg, total 378 mg/kg
[5] = Cg 5, IV Q2dx7, 34 mg/kg, total 238 mg/kg
[6] = Cg 6, IV Q2dx7, 48-60 mg/kg, total 372 mg/kg
[7] = Cg 7, IV Q2dx7, 30-38 mg/kg, total 234 mg/kg
[8] = Cg 8, IV Qd1,3,5,7-13, 57-125 mg/kg, total 822 mg/kg
[9] = Cg 9, IV Qd1,3,5,7-13, 36-75 mg/kg, total 513 mg/kg

Question: For COc1c(Br)ccc2ccc(Oc3ccc(OC(C)C(=O)O)cc3)nc12 (stereo not drawn) [SH135R, 2-(4-(7-Bromo-8-methoxyquinolin-2-yloxy)phenoxy)propanoic acid], which “Activity rating (Comments)” value [1, 4] is on record?
Answer: (++++) (Highly active ++++ >2.8)

Question: And the “Log Cell Kill Gross” value [1, 4]?
Answer: 5.0

Question: What about the “Log Cell Kill Net” value [1, 4] of the same compound?
Answer: 1.4

Question: And the “Median Tumor Burden in mg on d10” value [1, 4]?
Answer: 0 mg

Question: And the “T-C” value [1, 4]?
Answer: 16.5 days

Question: What about the T/C % [1, 4] of the same compound?
Answer: 0%

Question: What about the “Time to 1000 mg” value [1, 4] of the same compound?
Answer: 25.5 days

Question: What about the “Tumor Free on d43” value [1, 4] of the same compound?
Answer: 0/5

Question: What about the “Activity rating (Comments)” value [1, 5] of the same compound?
Answer: (++++) (Highly active ++++ >2.8)

Question: What about the “Log Cell Kill Gross” value [1, 5] of the same compound?
Answer: 4.2

Question: And the “Log Cell Kill Net” value [1, 5]?
Answer: 0.6

Question: What about the “Median Tumor Burden in mg on d10” value [1, 5] of the same compound?
Answer: 63 mg

Question: And the “T-C” value [1, 5]?
Answer: 14 days

Question: And the T/C % [1, 5]?
Answer: 5.5%

Question: And the “Time to 1000 mg” value [1, 5]?
Answer: 23 days

Question: And the “Tumor Free on d43” value [1, 5]?
Answer: 0/4

Question: What about the T/C % ([1]; Cg 5, IV Q2dx7, 34 mg/kg, total 238 mg/kg, listed as SH 135(R)) of the same compound?
Answer: 0%

Question: Which “Drug Death (day of death)” value [2, 6] does the source give for COc1c(Cl)ccc2ccc(Oc3ccc(OC(C)C(=O)O)cc3)nc12 (stereo not drawn) [SH140R, 2-(4-(7-Chloro-8-methoxyquinolin-2-yloxy)phenoxy)propanoic acid] here?
Answer: 0/5

Question: And the “Drug Death (day of death)” value [2, 7]?
Answer: 0/5

Question: And the “Activity rating (Comments)” value [1, 6]?
Answer: (++++) (Highly active ++++ >2.8)

Question: And the “Log Cell Kill Gross” value [1, 6]?
Answer: 4.8

Question: What about the “Log Cell Kill Net” value [1, 6] of the same compound?
Answer: 1.2

Question: What about the “Median Tumor Burden in mg on d10” value [1, 6] of the same compound?
Answer: 0 mg

Question: What about the “T-C” value [1, 6] of the same compound?
Answer: 16 days

Question: What about the T/C % [1, 6] of the same compound?
Answer: 0%

Question: What about the “Time to 1000 mg” value [1, 6] of the same compound?
Answer: 25 days

Question: What about the “Tumor Free on d43” value [1, 6] of the same compound?
Answer: 0/5

Question: And the “Activity rating (Comments)” value [1, 7]?
Answer: (++++) (Highly active ++++ >2.8)

Question: And the “Log Cell Kill Gross” value [1, 7]?
Answer: 3.6

Question: And the “Log Cell Kill Net” value [1, 7]?
Answer: 0

Question: What about the “Median Tumor Burden in mg on d10” value [1, 7] of the same compound?
Answer: 63 mg

Question: And the “T-C” value [1, 7]?
Answer: 12 days

Question: And the T/C % [1, 7]?
Answer: 5.5%

Question: What about the “Time to 1000 mg” value [1, 7] of the same compound?
Answer: 21 days

Question: And the “Tumor Free on d43” value [1, 7]?
Answer: 0/5

Question: For COc1c(F)ccc2ccc(Oc3ccc(OC(C)C(=O)O)cc3)nc12 (stereo not drawn) [SH144R, 2-(4-(7-Fluoro-8-methoxyquinolin-2-yloxy)phenoxy)propanoic acid], which “Drug Death (day of death)” value [2, 8] is on record?
Answer: 0/4

Question: And the “Drug Death (day of death)” value ([2]; Cg 8, IV Qd1,3,5,7-13, 57-125 mg/kg, total 822 mg/kg, listed as SH 144(R))?
Answer: no drug deaths

Question: And the “Drug Death (day of death)” value [2, 9]?
Answer: 0/5

Question: What about the “Activity rating (Comments)” value [1, 8] of the same compound?
Answer: (++++) (Highly active ++++ >2.8)

Question: And the “Log Cell Kill Gross” value [1, 8]?
Answer: 4.1

Question: What about the “Log Cell Kill Net” value [1, 8] of the same compound?
Answer: 0.5

Question: And the “Median Tumor Burden in mg on d10” value [1, 8]?
Answer: 0 mg

Question: What about the “T-C” value [1, 8] of the same compound?
Answer: 13.5 days

Question: And the T/C % [1, 8]?
Answer: 0%

Question: What about the “Time to 1000 mg” value [1, 8] of the same compound?
Answer: 22.5 days

Question: And the “Tumor Free on d43” value [1, 8]?
Answer: 0/4

Question: What about the “Activity rating (Comments)” value [1, 9] of the same compound?
Answer: (+++) (2.0-2.8)

Question: What about the “Log Cell Kill Gross” value [1, 9] of the same compound?
Answer: 2.1

Question: And the “Log Cell Kill Net” value [1, 9]?
Answer: −1.5

Question: What about the “Median Tumor Burden in mg on d10” value [1, 9] of the same compound?
Answer: 320 mg

Question: What about the “T-C” value [1, 9] of the same compound?
Answer: 7 days

Question: What about the T/C % [1, 9] of the same compound?
Answer: 28%

Question: And the “Time to 1000 mg” value [1, 9]?
Answer: 16 days

Question: What about the “Tumor Free on d43” value [1, 9] of the same compound?
Answer: 0/5

Question: For CC(Oc1ccc(Oc2cnc3ccc(Cl)cc3n2)cc1)C(=O)[O-].[Na+] (stereo not drawn) [XK469], which “activity against transplantable mouse tumors” value ([3]; Corbett et al., Investigational New Drugs 16, 129-139 (1998)) is on record?
Answer: broad activity

Question: What about the undesirable side effects ([3]; reported, in vivo) of the same compound?
Answer: in vivo toxicity, e.g., paralytic ileus, GI-epithelial damage, marrow toxicity, neuromuscular toxicity and weight loss

Question: And the potency ([3]; reported)?
Answer: relatively low potency
